Measurements taken from article PMC10287555, “Camonsertib in DNA damage response-deficient advanced solid tumors: phase 1 trial results” (Nature Medicine, 2023).
Like-named read-outs stand apart in the source and are kept apart here.

What was measured:
[1] = Plasma pharmacokinetics, cycle 1 day 1 (LC–MS/MS, non-compartmental analysis); assay type: in vivo, human; details: for AUC(0-t) / Cmax / Tmax / AUC(0-inf) / half-life: human, plasma, oral; for Cmax: read-out: Cmax, geometric mean; for Tmax: read-out: Tmax, median; for AUC(0-inf): read-out: AUC0-INF, geometric mean
Method: (§1) The plasma levels from cycle 1, day 1 of camonsertib were quantified using a validated liquid chromatography tandem–mass spectrometry (LC–MS/MS) method. […] All PK parameters were calculated using actual sampling times. Mean plasma concentration time profiles at given dose levels and regimens were plotted on semi-logarithmic plots using nominal times.

[2] = Food effect on PK (module 1c); assay type: in vivo, human
Text: TRESR (NCT04497116) is a modular, phase 1/2a, first-in-human, multicenter, open-label, non-randomized, dose-escalation, dose-expansion study of camonsertib, administered orally as a single agent or in combination with talazoparib or gemcitabine in patients with advanced solid tumors. The results reported here focus on module 1, which includes the dose escalation of camonsertib monotherapy, and is further divided into three submodules: module 1a (M1a), 5/2 dosing schedule; module 1b (M1b), 3/4 dosing schedule; and module 1c (M1c), food effect evaluation. For the 12 patients enrolled in M1c, camonsertib was administered with a high-fat, high-calorie meal on day −3 and in the fasted state on day 1, to evaluate the effect of food on the PK of camonsertib. After the food effect portion of the study, patients continued camonsertib monotherapy on either the 5/2 or 3/4 schedule and were analyzed for safety and efficacy along with the patients in M1a and M1b. The study was conducted in accordance with the Declaration of Helsinki and Council for International Organizations of Medical Sciences International Ethical Guidelines, applicable International Conference on Harmonization Good Clinical Practice Guidelines and applicable laws and regulations. All patients provided written informed consent to adhere to the clinical protocol and provide serial blood samples and tumor tissue. The protocol was approved by the institutional review board or ethics committee at each participating institution.
as §1

[3] = Dose 5 mg, Tau 24 hr, cycle 1 day 1
[4] = Dose 10 mg, Tau 24 hr, cycle 1 day 1
[5] = Dose 20 mg, Tau 24 hr, cycle 1 day 1
[6] = Dose 40 mg, Tau 12 hr, cycle 1 day 1
[7] = Dose 40 mg, Tau 24 hr, cycle 1 day 1
[8] = Dose 60 mg, Tau 12 hr, cycle 1 day 1
[9] = Dose 80 mg, Tau 12 hr, cycle 1 day 1
[10] = Dose 80 mg, Tau 24 hr, cycle 1 day 1
[11] = Dose 100 mg, Tau 24 hr, cycle 1 day 1
[12] = Dose 120 mg, Tau 24 hr, cycle 1 day 1
[13] = Dose 160 mg, Tau 24 hr, cycle 1 day 1
[14] = Dose 200 mg, Tau 24 hr, cycle 1 day 1
[15] = 10 mg, Tau 24 hr, cycle 1 day 1
[16] = 20 mg, Tau 24 hr, cycle 1 day 1
[17] = 40 mg, Tau 12 hr, cycle 1 day 1
[18] = 40 mg, Tau 24 hr, cycle 1 day 1
[19] = 60 mg, Tau 12 hr, cycle 1 day 1
[20] = 80 mg, Tau 12 hr, cycle 1 day 1
[21] = 80 mg, Tau 24 hr, cycle 1 day 1
[22] = 100 mg, Tau 24 hr, cycle 1 day 1
[23] = 120 mg, Tau 24 hr, cycle 1 day 1
[24] = 160 mg, Tau 24 hr, cycle 1 day 1
[25] = 200 mg, Tau 24 hr, cycle 1 day 1
[26] = high fat/high calorie meal vs fasted, 100–160 mg QD

SMILES: C[C@@H]1COCCN1c1cc([C@]2(O)C[C@H]3CC[C@@H](C2)O3)c2cnn(-c3cc[nH]n3)c2n1 [camonsertib]
- AUC0-t/dose, geometric mean [1, 3]: 0.427 µg·h/mL/mg
- Cmax/dose, geometric mean [1, 3]: 0.098 µg/mL/mg
- AUC0-t/dose, geometric mean [1, 4]: 0.567 µg·h/mL/mg
- Cmax/dose, geometric mean [1, 4]: 0.105 µg/mL/mg
- AUC0-t/dose, geometric mean [1, 5]: 0.239 µg·h/mL/mg
- Cmax/dose, geometric mean [1, 5]: 0.04 µg/mL/mg
- AUC0-t/dose, geometric mean [1, 6]: 1.003 µg·h/mL/mg
- Cmax/dose, geometric mean [1, 6]: 0.095 µg/mL/mg
- AUC0-t/dose, geometric mean [1, 7]: 0.329 µg·h/mL/mg
- Cmax/dose, geometric mean [1, 7]: 0.029 µg/mL/mg
- AUC0-t/dose, geometric mean [1, 8]: 0.444 µg·h/mL/mg
- Cmax/dose, geometric mean [1, 8]: 0.055 µg/mL/mg
- AUC0-t/dose, geometric mean [1, 9]: 0.527 µg·h/mL/mg
- Cmax/dose, geometric mean [1, 9]: 0.038 µg/mL/mg
- AUC0-t/dose, geometric mean [1, 10]: 0.254 µg·h/mL/mg
- Cmax/dose, geometric mean [1, 10]: 0.071 µg/mL/mg
- AUC0-t/dose, geometric mean [1, 11]: 0.3 µg·h/mL/mg
- Cmax/dose, geometric mean [1, 11]: 0.052 µg/mL/mg
- AUC0-t/dose, geometric mean [1, 12]: 0.246 µg·h/mL/mg
- Cmax/dose, geometric mean [1, 12]: 0.044 µg/mL/mg
- AUC0-t/dose, geometric mean [1, 13]: 0.256 µg·h/mL/mg
- Cmax/dose, geometric mean [1, 13]: 0.046 µg/mL/mg
- AUC0-t/dose, geometric mean [1, 14]: 0.273 µg·h/mL/mg
- Cmax/dose, geometric mean [1, 14]: 0.047 µg/mL/mg
- Accumulation ([1]; after repeated dosing): no accumulation
- Increases in Cmax and AUC with dose ([1]; dose range 5–200 mg QD): linear
- AUC(0-t) ([1]; 5 mg, Tau 24 hr, cycle 1 day 1, read-out: AUC0-12, geometric mean): 1800 ng·h/mL
- AUC(0-t) ([1]; 5 mg, Tau 24 hr, cycle 1 day 1, read-out: AUC0-t, geometric mean): 2100 ng·h/mL
- Cmax ([1]; 5 mg, Tau 24 hr, cycle 1 day 1): 500 ng/mL
- Tmax ([1]; 5 mg, Tau 24 hr, cycle 1 day 1): 1.17 h
- AUC(0-t) ([1]; 10 mg, Tau 24 hr, cycle 1 day 1, read-out: AUC0-12, geometric mean): 4400 ng·h/mL
- AUC(0-t) ([1]; 10 mg, Tau 24 hr, cycle 1 day 1, read-out: AUC0-t, geometric mean): 5700 ng·h/mL
- Cmax [1, 15]: 1100 ng/mL
- Tmax [1, 15]: 1 h
- AUC(0-t) ([1]; 20 mg, Tau 24 hr, cycle 1 day 1, read-out: AUC0-12, geometric mean): 2800 ng·h/mL
- AUC(0-t) ([1]; 20 mg, Tau 24 hr, cycle 1 day 1, read-out: AUC0-t, geometric mean): 4800 ng·h/mL
- Cmax [1, 16]: 800 ng/mL
- Tmax [1, 16]: 10.7 h
- AUC(0-t) ([1]; 40 mg, Tau 12 hr, cycle 1 day 1, read-out: AUC0-12, geometric mean): 23400 ng·h/mL
- AUC(0-t) ([1]; 40 mg, Tau 12 hr, cycle 1 day 1, read-out: AUC0-t, geometric mean): 40100 ng·h/mL
- Cmax [1, 17]: 3800 ng/mL
- Tmax [1, 17]: 1.96 h
- AUC(0-t) ([1]; 40 mg, Tau 24 hr, cycle 1 day 1, read-out: AUC0-12, geometric mean): 4700 ng·h/mL
- AUC(0-t) ([1]; 40 mg, Tau 24 hr, cycle 1 day 1, read-out: AUC0-t, geometric mean): 13200 ng·h/mL
- Cmax [1, 18]: 1200 ng/mL
- Tmax [1, 18]: 22.1 h
- AUC(0-t) ([1]; 60 mg, Tau 12 hr, cycle 1 day 1, read-out: AUC0-12, geometric mean): 16900 ng·h/mL
- AUC(0-t) ([1]; 60 mg, Tau 12 hr, cycle 1 day 1, read-out: AUC0-t, geometric mean): 26600 ng·h/mL
- Cmax [1, 19]: 3300 ng/mL
- Tmax [1, 19]: 1.55 h
- AUC(0-t) ([1]; 80 mg, Tau 12 hr, cycle 1 day 1, read-out: AUC0-12, geometric mean): 21400 ng·h/mL
- AUC(0-t) ([1]; 80 mg, Tau 12 hr, cycle 1 day 1, read-out: AUC0-t, geometric mean): 42100 ng·h/mL
- Cmax [1, 20]: 3000 ng/mL
- Tmax [1, 20]: 2.17 h
- AUC(0-t) ([1]; 80 mg, Tau 24 hr, cycle 1 day 1, read-out: AUC0-12, geometric mean): 18700 ng·h/mL
- AUC(0-t) ([1]; 80 mg, Tau 24 hr, cycle 1 day 1, read-out: AUC0-t, geometric mean): 20300 ng·h/mL
- Cmax [1, 21]: 5700 ng/mL
- Tmax [1, 21]: 1 h
- AUC(0-t) ([1]; 100 mg, Tau 24 hr, cycle 1 day 1, read-out: AUC0-12, geometric mean): 24800 ng·h/mL
- AUC(0-t) ([1]; 100 mg, Tau 24 hr, cycle 1 day 1, read-out: AUC0-t, geometric mean): 30200 ng·h/mL
- Cmax [1, 22]: 5200 ng/mL
- Tmax [1, 22]: 1.54 h
- AUC(0-t) ([1]; 120 mg, Tau 24 hr, cycle 1 day 1, read-out: AUC0-12, geometric mean): 23900 ng·h/mL
- AUC(0-t) ([1]; 120 mg, Tau 24 hr, cycle 1 day 1, read-out: AUC0-t, geometric mean): 29500 ng·h/mL
- Cmax [1, 23]: 5300 ng/mL
- Tmax [1, 23]: 2.03 h
- AUC(0-t) ([1]; 160 mg, Tau 24 hr, cycle 1 day 1, read-out: AUC0-12, geometric mean): 34800 ng·h/mL
- AUC(0-t) ([1]; 160 mg, Tau 24 hr, cycle 1 day 1, read-out: AUC0-t, geometric mean): 41000 ng·h/mL
- Cmax [1, 24]: 7300 ng/mL
- Tmax [1, 24]: 1.21 h
- AUC(0-t) ([1]; 200 mg, Tau 24 hr, cycle 1 day 1, read-out: AUC0-12, geometric mean): 44700 ng·h/mL
- AUC(0-t) ([1]; 200 mg, Tau 24 hr, cycle 1 day 1, read-out: AUC0-t, geometric mean): 54600 ng·h/mL
- Cmax [1, 25]: 9500 ng/mL
- Tmax [1, 25]: 1 h
- AUC(0-inf) [1, 3]: 2300 ng·h/mL
- half-life ([1]; Dose 5 mg, Tau 24 hr, cycle 1 day 1, read-out: Half-life, geometric mean (converted)): 5.87 h
- AUC(0-inf) [1, 4]: 6600 ng·h/mL
- half-life ([1]; Dose 10 mg, Tau 24 hr, cycle 1 day 1, read-out: Half-life, geometric mean (converted)): 8.5 h
- AUC(0-inf) [1, 5]: 3100 ng·h/mL
- half-life ([1]; Dose 20 mg, Tau 24 hr, cycle 1 day 1, read-out: Half-life, geometric mean (converted)): 4.18 h
- AUC(0-inf) [1, 6]: 153000 ng·h/mL
- AUC(0-inf) [1, 8]: 66100 ng·h/mL
- AUC(0-inf) [1, 10]: 21000 ng·h/mL
- half-life ([1]; Dose 80 mg, Tau 24 hr, cycle 1 day 1, read-out: Half-life, geometric mean (converted)): 4.08 h
- AUC(0-inf) [1, 11]: 32300 ng·h/mL
- half-life ([1]; Dose 100 mg, Tau 24 hr, cycle 1 day 1, read-out: Half-life, geometric mean (converted)): 5.67 h
- AUC(0-inf) [1, 12]: 31300 ng·h/mL
- half-life ([1]; Dose 120 mg, Tau 24 hr, cycle 1 day 1, read-out: Half-life, geometric mean (converted)): 6.21 h
- AUC(0-inf) [1, 13]: 45900 ng·h/mL
- half-life ([1]; Dose 160 mg, Tau 24 hr, cycle 1 day 1, read-out: Half-life, geometric mean (converted)): 5.97 h
- AUC(0-inf) [1, 14]: 58900 ng·h/mL
- half-life ([1]; Dose 200 mg, Tau 24 hr, cycle 1 day 1, read-out: Half-life, geometric mean (converted)): 6.31 h
- half-life ([1]; across all QD dose levels, read-out: Median half-life (converted)): 5.8 h
- Doses at which plasma exposures achieved predicted efficacious exposures ([1]; in vivo): > 100 mg QD
- PK variability ([1]; intra-patient and inter-patient): low intra-patient and inter-patient variability
- Food effect on AUC [2, 26]: no change in AUC
- Food effect on Cmax [2, 26]: reduction
- Food effect on Tmax [2, 26]: delay in Tmax
- Effect of a high-fat, high-calorie meal on PK ([2]; twelve patients, module 1c): modest PK changes
